Laboratory results reported in patent US5994334A, “Androgen synthesis inhibitors” (priority 1997, dated 1999).
Entries after “also recorded” stand apart in the source; their conditions may differ. Like-named read-outs stand apart in the source and are kept apart here.

What was measured:
[1] = biological target: T1, Human Testicular 17α-Hydroxylase (Homo sapiens, UniProt P05093); test: Inhibition of human testicular 17α-hydroxylase (pregnenolone substrate, testicular microsomes); format: biochemical; settings: for inhibition at 0.1 µM: read-out: % Inhibition 17α-hydroxylase, [I] = 100 nM; for inhibition at 0.4 µM: read-out: % Inhibition 17α-hydroxylase, [I] = 400 nM
T1 construct: incubating human testicular microsomes; from tissue; host or cells: human testis, microsomes
T1 sequence (P05093 1-508): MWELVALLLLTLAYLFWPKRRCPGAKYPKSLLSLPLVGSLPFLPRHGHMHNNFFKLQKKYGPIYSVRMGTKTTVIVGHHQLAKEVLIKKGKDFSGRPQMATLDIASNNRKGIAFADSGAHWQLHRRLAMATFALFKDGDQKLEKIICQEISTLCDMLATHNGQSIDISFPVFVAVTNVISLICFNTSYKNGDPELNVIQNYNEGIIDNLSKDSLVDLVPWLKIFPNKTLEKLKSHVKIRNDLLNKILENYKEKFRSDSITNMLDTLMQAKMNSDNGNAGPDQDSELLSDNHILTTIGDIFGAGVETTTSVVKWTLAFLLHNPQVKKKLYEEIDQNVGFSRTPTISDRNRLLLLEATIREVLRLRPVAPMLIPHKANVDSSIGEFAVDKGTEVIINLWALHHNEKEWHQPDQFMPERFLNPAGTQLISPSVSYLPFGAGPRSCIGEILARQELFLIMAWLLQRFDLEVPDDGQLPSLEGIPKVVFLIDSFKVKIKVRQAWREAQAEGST
Procedure: (§1) The conversion of radiolabeled pregnenolone to 17α-hydroxypregnenolone and DHEA by 17α-hydroxylase/C17,20 -lyase was measured by incubating human testicular microsomes with different concentration of test compounds. Reverse phase HPLC was used to separate and accurately quantify the amount of substrate and metabolites. The 17α-hydroxylase and C17,20 -lyase activities were calculated separately. The activity of 17α-hydroxylase was calculated from the conversion of pregnenolone to 17α-hydroxypregnenolone and DHEA and the activity of C17,20 -lyase was based on the conversion of pregnenolone to DHEA. Although 17α-hydroxypregnenolone is the substrate converted to DHEA by C17,20 -lyase, it has been reported that this 17α-hydroxy intermediate is not released from the enzyme binding site during conversion (Nakajin et al., 1981a,b). Also, there are species differences in substrate requirements. Pregnenolone is the natural substrate rather than progesterone for human testicular 17α-hydroxylase and C17,20 -lyase. Therefore, pregnenolone was used as substrate for measuring the activity of this enzyme complex.

[2] = biological target: T2, Human Testicular C17,20-lyase (Homo sapiens, UniProt P05093); test: Inhibition of human testicular C17,20-lyase (pregnenolone substrate, testicular microsomes); format: biochemical; settings: for inhibition at 0.1 µM: read-out: % Inhibition C17,20-lyase, [I] = 100 nM; for inhibition at 0.4 µM: read-out: % Inhibition C17,20-lyase, [I] = 400 nM
T2 construct: incubating human testicular microsomes; from tissue; host or cells: human testis, microsomes
T2 sequence (P05093 1-508): T1 sequence (P05093 1-508)
Procedure: as §1

[3] = biological target: T3, human 17α-hydroxylase/C17,20-lyase (Homo sapiens, UniProt P05093); test: Inhibition of human testicular 17α-hydroxylase/C17,20-lyase (enzyme complex as a whole); format: biochemical; settings: NI = no inhibition
T3 construct: incubating human testicular microsomes; from tissue; host or cells: human testis, microsomes
T3 sequence (P05093 1-508): T1 sequence (P05093 1-508)
Procedure: as §1

[4] = biological target: T4, Human Prostatic 5α-Reductase (Homo sapiens, UniProt P31213); test: Inhibition of human prostatic 5α-reductase (prostatic microsomes, [3H]testosterone); settings: for inhibition at 0.1 µM: read-out: % Inhibition of 5α-reductase, [I] 100 nM; for inhibition at 0.4 µM: read-out: % Inhibition of 5α-reductase, [I] 400 nM; for inhibition at 0.01 µM: read-out: % Inhibition of 5α-reductase, [I] 10 nM
T4 sequence (P31213 1-254): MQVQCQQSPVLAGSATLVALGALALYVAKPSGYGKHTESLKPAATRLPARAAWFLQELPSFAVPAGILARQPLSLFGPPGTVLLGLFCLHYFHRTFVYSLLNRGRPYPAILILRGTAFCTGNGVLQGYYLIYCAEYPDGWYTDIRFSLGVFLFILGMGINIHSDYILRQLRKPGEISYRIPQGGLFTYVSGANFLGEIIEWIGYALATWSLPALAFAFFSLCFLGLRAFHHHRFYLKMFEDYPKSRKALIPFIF
Procedure: The 5α-reductase assay is performed by incubating human prostatic microsomes (approx. 0.6 mg protein in 0.5 ml phosphate buffer) with [7-^3 H]testosterone (10 mM. 6×10^5 dpm) with a NADPH generating system (NADP 0.65 mM; glucose-6-phosphate 7.1 mM; glucose-6-phosphate dehydrogenase 2.5 IU in 100 μl phosphate buffer) and candidate inhibitors at concentrations of 10 nM and 100 nM under oxygen for 30 min at 37° C. […] The steroids are extracted with ether and separated by chromatography on TLC (chloroform:ether 80:20). […] The steroids are scraped from the plate and radioactivity measured.

[5] = Table 1, NI = no inhibition, read-out: IC50 17α-OHase
[6] = first figure of pair, read-out: IC50 17α-hydroxylase
[7] = Table 1, NI = no inhibition, CI = complete inhibition, read-out: IC50 C17,20 lyase
[8] = second figure of pair, read-out: IC50 C17,20-lyase

With `CC(=O)O[C@H]1CC[C@@]2(C)C(=CC[C@@H]3[C@@H]2CC[C@]2(C)C(c4c[nH]cn4)=CC[C@@H]32)C1` [Compound L-12] the inhibition at 0.1 µM ([1]; 100 nM, first figure of pair) was 62.4%, the inhibition at 0.4 µM ([1]; 400 nM, first figure of pair) was 89.3% and the IC50 [1, 5] was 75 nM. It also gave an IC50 ([1]; Table 3, first figure of 17α-hydroxylase/lyase pair, read-out: IC50 17α-hydroxylase) of 74.6 nM, an IC50 [1, 6] of 75 nM and an inhibition at 0.1 µM ([2]; 100 nM, second figure of pair) of 82.1%. The inhibition at 0.4 µM ([2]; 400 nM, second figure of pair) was 97%, the IC50 [2, 7] was 25 nM and the IC50 ([2]; Table 3, second figure of pair, CI = complete inhibition, read-out: IC50 lyase) was 24.8 nM. For the same compound, the IC50 [2, 8] was 25 nM and the “inhibition of 17α-hydroxylase/C17,20-lyase (in words)” value [3] was “lower potency than I-49; also recorded: weaker inhibitor than I-49”.

With `C[C@H](C=O)[C@H]1CC[C@H]2[C@@H]3CC=C4C[C@@H](O)CC[C@]4(C)[C@H]3CC[C@]12C` [Compound I-31] the IC50 [1, 5] was 80 nM and the IC50 [2, 7] was 80 nM.

Work on `CN(C)N=C1CC[C@H]2[C@@H]3CC=C4C[C@@H](O)CC[C@]4(C)[C@H]3CC[C@]12C` [Compound I-56] yielded an IC50 [1, 5] of 4200 nM and an IC50 [2, 7] of 2400 nM.

`CN(C=O)[C@H]1CC[C@H]2[C@@H]3CC=C4C[C@@H](O)CC[C@]4(C)[C@H]3CC[C@]12C` [Compound I-39] gave an IC50 [1, 5] of 290 nM and an IC50 [2, 7] of 280 nM.

Compound `CC1N[C@@]12CC[C@H]1[C@@H]3CC=C4C[C@@H](O)CC[C@]4(C)[C@H]3CC[C@@]12C` (stereo partly drawn) [Compound L-21] has an inhibition at 0.1 µM [1] of 8.47%, an inhibition at 0.4 µM [1] of 23.7% and an inhibition at 0.1 µM [2] of 29.1%. It also gave an inhibition at 0.4 µM [2] of 52%.

In the case of `C[C@]12CC[C@H]3[C@@H](CC[C@]45CC(=O)CC[C@]34[C@@H]5O)[C@@H]1CCC2=O` [Compound L-20, 19(R)-Hydroxy-5,19β-cyclo-androst-3,17-dione], the inhibition at 0.1 µM [4] is reported as 5.89% and the inhibition at 0.4 µM [4] is reported as 12.2%.

`C[C@H](O)[C@H]1CC[C@H]2[C@@H]3CC=C4C[C@@H](O)CC[C@]4(C)[C@H]3CC[C@]12C` [Compound I-19] was tested, and the IC50 ([1]; IC50 17α-OHase) was 720 nM, the IC50 ([2]; IC50 C17,20 lyase) was 510 nM and the “inhibition of 5α-reductase (in words)” value ([4]; NI = no inhibition) was “neither showed activity against 5α-reductase”.

For `C[C@]12CC[C@H](O)CC1=CC[C@@H]1[C@@H]2CC[C@@]2(C)[C@H]1C[C@H]1O[C@]12c1c[nH]cn1` [Compound I-51], the IC50 [1, 5] was 430 nM, the IC50 [1, 6] was 431 nM and the IC50 [2, 7] was 100 nM. For the same compound, the IC50 [2, 8] was 98 nM.

`CO[C@@H]1[C@]23CC[C@@H]4[C@H](CC[C@]5(C)C(=O)CC[C@@H]45)[C@]12CCC(=O)[C@H]3C` [Compound L-23, 4α-methyl-19-(S)-methoxy-5,19β-cycloandrost-3,17-dione] showed an inhibition at 0.1 µM [4] of 0% and an inhibition at 0.4 µM [4] of 16.1%.

In the case of `C[C@]12CC[C@H]3[C@@H](CCC4=CC(=O)CC[C@@]43CBr)[C@@H]1CCC2=O` [Compound L-24, 19-Bromo-androst-4-ene-3,17-dione], the inhibition at 0.1 µM [4] is reported as 12.3% and the inhibition at 0.4 µM [4] is reported as 52.7%.

With `C[C@H](O)C1=CC[C@H]2[C@@H]3CC=C4C[C@@H](O)CC[C@]4(C)[C@H]3CC[C@]12C` [Compound L-9] the “inhibition of 17α-hydroxylase/C17,20-lyase (in words)” value [3] was “less active” and the inhibition at 0.01 µM [4] was 33.2%.

`C[C@]12CC[C@H]3[C@@H](CCC4=CC(=O)CC[C@@]43C)[C@@H]1CC[C@@H]2c1ncc[nH]1` [Compound L-3] showed an inhibition at 0.1 µM ([1]; 100 nM, first figure of pair) of 20.3%, an inhibition at 0.4 µM ([1]; 400 nM, first figure of pair) of 43.5% and an inhibition at 0.1 µM ([2]; 100 nM, second figure of pair) of 62.9%. The inhibition at 0.4 µM ([2]; 400 nM, second figure of pair) was 100%, the inhibition at 0.1 µM [4] was 31.7% and the inhibition at 0.4 µM [4] was 61.7%.

With `CC(=NO)[C@H]1CC[C@H]2[C@@H]3CC=C4C[C@@H](O)CC[C@]4(C)[C@H]3CC[C@]12C` [Compound I-1] the “inhibition of 17α-hydroxylase/C17,20-lyase (in words)” value [3] was “potent inhibition”.

For `C[C@H](C=NN(C)C)[C@H]1CC[C@H]2[C@@H]3CCC4=CC(=O)CC[C@]4(C)[C@H]3CC[C@]12C` [Compound I-15], the “inhibition of 17α-hydroxylase/C17,20-lyase (in words)” value [3] was “devoid of inhibitory activity”, the inhibition at 0.01 µM [4] was 16.4% and the inhibition at 0.1 µM [4] was 74.9%.

In the case of `CC(=NN(C)C)C1=CC[C@H]2[C@@H]3CC=C4C[C@@H](O)CC[C@]4(C)[C@H]3CC[C@]12C` [Compound I-14], the “inhibition of 17α-hydroxylase/C17,20-lyase (in words)” value [3] is reported as “devoid of inhibitory activity”.
